Source: ChEMBL document CHEMBL4346733, “Evaluation of amidoxime derivatives as prodrug candidates of potent bis-cationic antimalarials” (Bioorg Med Chem Lett, 2019)
Active and inactive are the calls of the source. The calls are words filed in the database; no cut-off is given here.

Test system: Plasmodium vinckei petteri
Experiment: (§1) Antimalarial activity against Plasmodium vinckei petteri 279BY infected in Swiss mouse assessed as reduction in parasitemia administered once daily via oral gavage starting from day 1 to day 4 post infection measured on day 5 Giemsa staining based flow cytometric analysis
Format: functional
Conditions: not given

SMILES | ED50 [mg/kg]
CO/N=C(\NCCCCCCCCCCCCN/C(=N\OC)c1ccccc1)c1ccccc1 | > 90
COc1ccc(/C(=N/O)NCCCCCCCCCCCCN/C(=N\O)c2ccc(OC)c(OC)c2)cc1OC | > 90
CC(C)NC(=N)CCCCCCCCOc1ccc(C(=N)NC(C)C)cc1.Cl.Cl | 110
O/N=C(\NCCCCCCCCCCCCN/C(=N\O)c1ccccc1)c1ccccc1 | > 90
CCN(CC)CCCC(C)Nc1ccnc2cc(Cl)ccc12 (stereo not given) [CHLOROQUINE] | 3.4
COc1ccc(/C(=N/O)NCCCCCCCCCCCCN/C(=N\O)c2ccc(OC)cc2)cc1 | > 90
Cc1c(CCO)sc[n+]1CCCCCCCCOc1ccc(/C(N)=N/O)cc1.[Br-] | 85
Cc1c(CCO)sc[n+]1CCCCCCCCCCCC/C(N)=N/O.[Br-] | > 180
CO/N=C(\NCCCCCCCCCCCCN/C(=N\OC)c1ccc(OC)c(OC)c1)c1ccc(OC)c(OC)c1 | > 90

Test system: Plasmodium vinckei petteri
Experiment: Selectivity index, ratio of ED50 for antimalarial activity against Plasmodium vinckei petteri 279BY infected in Swiss mouse administered via intraperitoneal route to ED50 for antimalarial activity against Plasmodium vinckei petteri 279BY infected in Swiss mouse administered via oral route
Format: functional
Conditions: not given

SMILES | Ratio ED50
Cc1c(CCO)sc[n+]1CCCCCCCCOc1ccc(/C(N)=N/O)cc1.[Br-] | >0.23

Test system: Plasmodium vinckei petteri
Experiment: as §1, with “at dosed intraperitoneally” for “administered”, “for 4 consecutive days” for “via oral gavage”, “infection and” for “infection”, “28 by” for “5”
Format: functional
Design: scale not given: the % may be the effect or the level left
Conditions: not given

SMILES | Activity [%]
Cc1c(CCO)sc[n+]1CCCCCCCCOc1ccc(/C(N)=N/O)cc1.[Br-] | 100

Test system: Plasmodium vinckei petteri
Experiment: Antimalarial activity against Plasmodium vinckei petteri 279BY infected in Swiss mouse assessed as reduction in parasitemia administered once daily via intraperitoneal route starting from day 1 to day 4 post infection measured on day 5 Giemsa staining based flow cytometric analysis
Format: functional
Conditions: ip

SMILES | ED50 [mg/kg]
C[C@H]1[C@H](OC(=O)CCC(=O)O)O[C@@H]2O[C@@]3(C)CC[C@H]4[C@H](C)CC[C@@H]1[C@@]24OO3 [ARTESUNATE] | 1.2
Cl.Cl.N=C(N)CCCCCCCCCCCOc1ccc(C(=N)N)cc1 | 2.2
CO/N=C(\NCCCCCCCCCCCCN/C(=N\OC)c1ccccc1)c1ccccc1 | > 20
COc1ccc(/C(=N/O)NCCCCCCCCCCCCN/C(=N\O)c2ccc(OC)c(OC)c2)cc1OC | 9.1
CC(C)NC(=N)CCCCCCCCOc1ccc(C(=N)NC(C)C)cc1.Cl.Cl | 2.8
O/N=C(\NCCCCCCCCCCCCN/C(=N\O)c1ccccc1)c1ccccc1 | > 20
CCN(CC)CCCC(C)Nc1ccnc2cc(Cl)ccc12 (stereo not given) [CHLOROQUINE] | 1.1
COc1ccc(/C(=N/O)NCCCCCCCCCCCCN/C(=N\O)c2ccc(OC)cc2)cc1 | > 20
Cc1c(CCO)sc[n+]1CCCCCCCCOc1ccc(/C(N)=N/O)cc1.[Br-] | > 20
Cc1c(CCO)sc[n+]1CCCCCCCCCCCC/C(N)=N/O.[Br-] | 20
CO/N=C(\NCCCCCCCCCCCCN/C(=N\OC)c1ccc(OC)c(OC)c1)c1ccc(OC)c(OC)c1 | > 20

Test system: Plasmodium falciparum
Experiment: Antimalarial activity against chloroquine-sensitive Plasmodium falciparum Nigerian infected in human blood after 48 hrs by [3H]-hypoxanthine incorporation assay
Format: functional, organism-based
Conditions: not given

IC50 [nM] | SMILES
195 | Cl.Cl.N=C(N)CCCCCCCCCCCOc1ccc(C(=N)N)cc1
9.5 | CC(C)NC(=N)CCCCCCCCOc1ccc(C(=N)NC(C)C)cc1.Cl.Cl
24000 | COc1ccc(/C(=N/O)NCCCCCCCCCCCCN/C(=N\O)c2ccc(OC)cc2)cc1
360 | Cc1c(CCO)sc[n+]1CCCCCCCCOc1ccc(/C(N)=N/O)cc1.[Br-]
240 | Cc1c(CCO)sc[n+]1CCCCCCCCCCCC/C(N)=N/O.[Br-]

Test system: not listed separately
Experiment: Retention time of compound at 0.05 mg/ml by HPLC analysis
Format: physicochemical
Conditions: not given

Retention_time [min] | SMILES
10.1 | CC(C)NC(=N)CCCCCCCCOc1ccc(C(=N)NC(C)C)cc1.Cl.Cl

Test system: Plasmodium falciparum
Experiment: Antimalarial activity against chloroquine-sensitive Plasmodium falciparum Nigerian after 48 hrs by [3H]-hypoxanthine incorporation assay
Format: functional, organism-based
Conditions: not given

IC50 [nM] | SMILES
2.2 | Cc1c(CCO)sc[n+]1CCCCCCCCCCCCC(=N)N

Test system: Plasmodium vinckei petteri
Experiment: Antimalarial activity against Plasmodium vinckei petteri 279BY infected in Swiss mouse assessed as reduction in parasitemia at 20 mg/kg, ip once daily for 4 consecutive days starting from day 1 to day 4 post infection and measured on day 5 Giemsa staining based flow cytometric analysis
Format: functional, organism-based
Conditions: not given

SMILES | Activity
Cc1c(CCO)sc[n+]1CCCCCCCCOc1ccc(/C(N)=N/O)cc1.[Br-] | inactive
